The source made the active and inactive calls. No cut-off for these calls is given here.
Key:
[1] = Cytotoxicity against MDCK cells assessed as decrease in cell viability after 40 hrs by CellTiter-Glo assay; format: cell-based, Canis lupus familiaris; conditions: dog
[2] = Antiviral activity against Influenza A virus (A/WSN/33(H1N1)) infected in MDCK cells assessed as inhibition of virus-induced cytopathic effect at 50 uM incubated for 40 hrs by CellTiter-Glo assay; format: functional, Influenza A virus (A/WSN/1933(H1N1))
[3] = Selectivity index, ratio of CC50 against uninfected MDCK cells to IC50 against Influenza A virus (A/WSN/33(H1N1)) infected MDCK cells; format: toxicity, cell-based; conditions: dog; read-out: Ratio CC50/IC50
[4] = Antiviral activity against Influenza A virus (A/WSN/33(H1N1)) infected in MDCK cells assessed as inhibition of virus-induced cytopathic effect incubated for 40 hrs by CellTiter-Glo assay; format: functional, cell-based, Influenza A virus (A/WSN/1933(H1N1))
[5] = Cytotoxicity against MDCK cells assessed as cell viability at 50 uM after 40 hrs by CellTiter-Glo assay; format: cell-based, Canis lupus familiaris; conditions: dog, read-out: Activity
[6] = Binding affinity to recombinant Influenza virus hemagglutinin by surface plasmon resonance analysis; parameters: species or system unidentified influenza virus; conditions: read-out: Kd(app)
[7] = Cytotoxicity against MDCK cells assessed as cell viability at 100 uM after 40 hrs by CellTiter-Glo assay relative to control; format: cell-based, Canis lupus familiaris; conditions: dog, read-out: Activity
[8] = Antiviral activity against Influenza A virus (A/WSN/33(H1N1)) infected in MDCK cells assessed as inhibition of virus-induced cytopathic effect at 100 uM incubated for 40 hrs by CellTiter-Glo assay; format: functional, Influenza A virus (A/WSN/1933(H1N1))
[9] = Cytotoxicity against MDCK cells assessed as cell viability at 100 uM after 40 hrs in presence of betulinic acid by CellTiter-Glo assay; format: cell-based, Canis lupus familiaris; conditions: dog, read-out: Activity
[10] = test system: Influenza A virus (A/WSN/1933(H1N1)); assay: Inhibition of Influenza A virus (A/WSN/33(H1N1)) neuraminidase activity using 4-MUNANA as substrate incubated for 30 mins by fluorescence spectrophotometry relative to control
[11] = Cytotoxicity against MDCK cells assessed as cell viability at 10 uM after 40 hrs by CellTiter-Glo assay; format: cell-based, Canis lupus familiaris; conditions: dog, read-out: Activity
[12] = Antiviral activity against Influenza A virus (A/WSN/33(H1N1)) infected in MDCK cells assessed as inhibition of virus-induced cytopathic effect at 10 uM incubated for 40 hrs by CellTiter-Glo assay; format: functional, Influenza A virus (A/WSN/1933(H1N1))
[13] = test system: Influenza A virus (A/WSN/1933(H1N1)); assay: Antiviral activity against Influenza A virus (A/WSN/33(H1N1)) infected in MDCK cells assessed as inhibition of viral production after 2 hrs post-infection by plaque formation assay; format: functional, cell-based
[14] = Antiviral activity against Influenza A virus (A/WSN/33(H1N1)) infected in MDCK cells assessed as inhibition of viral production up to 2 hrs post-infection by plaque formation assay; format: functional, Influenza A virus (A/WSN/1933(H1N1))
[15] = molecular target: Hemagglutinin (Influenza A virus) (UniProt B4URE7); assay: Inhibition of Influenza A virus (A/WSN/33(H1N1)) hemagglutinin-mediated aggregation of chicken erythrocytes after 30 mins; conditions: Influenza A virus (A/WSN/1933(H1N1))
[16] = Cytotoxicity against MDCK cells assessed as cell viability at 100 uM after 40 hrs in presence of sialic acid by CellTiter-Glo assay; format: cell-based, Canis lupus familiaris; conditions: dog, read-out: Activity

Chain of Hemagglutinin (Influenza A virus) (B4URE7 as listed by the source): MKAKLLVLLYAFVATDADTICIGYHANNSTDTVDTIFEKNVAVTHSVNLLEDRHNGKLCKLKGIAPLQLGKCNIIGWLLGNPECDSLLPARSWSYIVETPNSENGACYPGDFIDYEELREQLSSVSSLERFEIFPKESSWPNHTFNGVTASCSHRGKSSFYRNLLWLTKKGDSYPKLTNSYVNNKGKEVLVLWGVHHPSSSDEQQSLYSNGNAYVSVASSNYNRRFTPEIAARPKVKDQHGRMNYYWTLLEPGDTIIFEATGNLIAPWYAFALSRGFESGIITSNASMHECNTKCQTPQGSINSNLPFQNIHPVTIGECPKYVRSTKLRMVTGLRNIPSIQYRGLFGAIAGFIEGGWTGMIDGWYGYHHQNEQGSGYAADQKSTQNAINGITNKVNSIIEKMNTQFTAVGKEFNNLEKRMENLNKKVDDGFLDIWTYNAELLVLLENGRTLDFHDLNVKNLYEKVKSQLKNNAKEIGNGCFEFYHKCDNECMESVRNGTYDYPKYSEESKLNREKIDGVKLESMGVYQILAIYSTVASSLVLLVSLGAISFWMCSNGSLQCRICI

Compound | CC50 at 40 h [1] [µM] | selectivity ratio [3] | IC50 [4] [µM] | Kd [6] [µM] | viability at 40 h, 100 µM [7] [%] | inhibition at 100 µM [8] [%] | inhibition [10] | also measured
CCOC(=O)C1=C[C@@H](OC(CC)CC)[C@H](NC(C)=O)[C@@H](N)C1 [OSELTAMIVIR] | > 500 | > 10.8 | 46.5 | – | – | – | – | inhibition at 50 µM [2]: 72.6%; viability at 40 h, 50 µM [5]: 98.5%
CC(=O)N[C@H]1[C@H]([C@H](O)[C@H](O)CO)O[C@@](O)(C(=O)O)C[C@@H]1O | – | – | – | 692 | 96.4 | 2 | – | viability at 40 h, 100 µM [9]: 20.3%
C=C(C)[C@@H]1CC[C@]2(C(=O)OCCO[C@]3(C(=O)OC)C[C@H](OC(C)=O)[C@@H](NC(C)=O)[C@H]([C@H](OC(C)=O)[C@@H](COC(C)=O)OC(C)=O)O3)CC[C@]3(C)[C@H](CC[C@@H]4[C@@]5(C)CC[C@H](O)C(C)(C)[C@@H]5CC[C@]43C)[C@@H]12 | 178 | 2.9 | 61.3 | – | 80.7 | 86.6 | inactive | –
COc1cc(/C=C/C(=O)CC(=O)/C=C/c2ccc(O)c(OC)c2)ccc1O [CURCUMIN] | 48.3 | 7.2 | 6.7 | – | – | – | – | viability at 40 h, 10 µM [11]: 98.7%; inhibition at 10 µM [12]: 69.3%
C=C(C)[C@@H]1CC[C@]2(C(=O)OCCO[C@]3(C(=O)OC)C[C@H](O)[C@@H](NC(C)=O)[C@H]([C@H](O)[C@H](O)CO)O3)CC[C@]3(C)[C@H](CC[C@@H]4[C@@]5(C)CC[C@H](O)C(C)(C)[C@@H]5CC[C@]43C)[C@@H]12 | > 500 | > 12.1 | 41.2 | 17 | 98.3 | 94.8 | inactive | inhibition [13]: inactive; inhibition (INH) [14]: >75%; inhibition [15]: Dose-dependent effect
C=C(C)[C@@H]1CC[C@]2(C(=O)O)CC[C@]3(C)[C@H](CC[C@@H]4[C@@]5(C)CC[C@H](O)C(C)(C)[C@@H]5CC[C@]43C)[C@@H]12 [BETULINIC ACID] | – | – | – | 30 | 22.8 | – | – | viability at 40 h, 100 µM [16]: 20.3%

Source: ChEMBL document CHEMBL3994565 (Medchemcomm, 2016)
